Laboratory results: publication doi:10.1101/2023.07.29.547699, “Bacterial pathogens deliver water/solute-permeable channels as a virulence strategy” (bioRxiv, 2023)

Tests used:
DspE [1] = biological target: T1, DspE (Erwinia amylovora, UniProt O54581); test: two-electrode voltage clamp, Xenopus oocytes; type: cell-based
T1 construct: full-length untagged ORF in pGH19, cRNA-injected Xenopus laevis oocytes; printed UniProt entry is strain Ea321, strain of the oocyte ORF not restated

AvrE [2] = biological target: T2, AvrE (Pseudomonas syringae group genomosp. 3, UniProt Q887C9); test: fluorescent dye uptake, Xenopus oocytes; type: cell-based; details: permeation through channel; ND96 bath saline with fluorescein, 20 h
T2 construct: full-length untagged ORF in pGH19, cRNA-injected Xenopus laevis oocytes
T2 sequence (Q887C9 whole entry): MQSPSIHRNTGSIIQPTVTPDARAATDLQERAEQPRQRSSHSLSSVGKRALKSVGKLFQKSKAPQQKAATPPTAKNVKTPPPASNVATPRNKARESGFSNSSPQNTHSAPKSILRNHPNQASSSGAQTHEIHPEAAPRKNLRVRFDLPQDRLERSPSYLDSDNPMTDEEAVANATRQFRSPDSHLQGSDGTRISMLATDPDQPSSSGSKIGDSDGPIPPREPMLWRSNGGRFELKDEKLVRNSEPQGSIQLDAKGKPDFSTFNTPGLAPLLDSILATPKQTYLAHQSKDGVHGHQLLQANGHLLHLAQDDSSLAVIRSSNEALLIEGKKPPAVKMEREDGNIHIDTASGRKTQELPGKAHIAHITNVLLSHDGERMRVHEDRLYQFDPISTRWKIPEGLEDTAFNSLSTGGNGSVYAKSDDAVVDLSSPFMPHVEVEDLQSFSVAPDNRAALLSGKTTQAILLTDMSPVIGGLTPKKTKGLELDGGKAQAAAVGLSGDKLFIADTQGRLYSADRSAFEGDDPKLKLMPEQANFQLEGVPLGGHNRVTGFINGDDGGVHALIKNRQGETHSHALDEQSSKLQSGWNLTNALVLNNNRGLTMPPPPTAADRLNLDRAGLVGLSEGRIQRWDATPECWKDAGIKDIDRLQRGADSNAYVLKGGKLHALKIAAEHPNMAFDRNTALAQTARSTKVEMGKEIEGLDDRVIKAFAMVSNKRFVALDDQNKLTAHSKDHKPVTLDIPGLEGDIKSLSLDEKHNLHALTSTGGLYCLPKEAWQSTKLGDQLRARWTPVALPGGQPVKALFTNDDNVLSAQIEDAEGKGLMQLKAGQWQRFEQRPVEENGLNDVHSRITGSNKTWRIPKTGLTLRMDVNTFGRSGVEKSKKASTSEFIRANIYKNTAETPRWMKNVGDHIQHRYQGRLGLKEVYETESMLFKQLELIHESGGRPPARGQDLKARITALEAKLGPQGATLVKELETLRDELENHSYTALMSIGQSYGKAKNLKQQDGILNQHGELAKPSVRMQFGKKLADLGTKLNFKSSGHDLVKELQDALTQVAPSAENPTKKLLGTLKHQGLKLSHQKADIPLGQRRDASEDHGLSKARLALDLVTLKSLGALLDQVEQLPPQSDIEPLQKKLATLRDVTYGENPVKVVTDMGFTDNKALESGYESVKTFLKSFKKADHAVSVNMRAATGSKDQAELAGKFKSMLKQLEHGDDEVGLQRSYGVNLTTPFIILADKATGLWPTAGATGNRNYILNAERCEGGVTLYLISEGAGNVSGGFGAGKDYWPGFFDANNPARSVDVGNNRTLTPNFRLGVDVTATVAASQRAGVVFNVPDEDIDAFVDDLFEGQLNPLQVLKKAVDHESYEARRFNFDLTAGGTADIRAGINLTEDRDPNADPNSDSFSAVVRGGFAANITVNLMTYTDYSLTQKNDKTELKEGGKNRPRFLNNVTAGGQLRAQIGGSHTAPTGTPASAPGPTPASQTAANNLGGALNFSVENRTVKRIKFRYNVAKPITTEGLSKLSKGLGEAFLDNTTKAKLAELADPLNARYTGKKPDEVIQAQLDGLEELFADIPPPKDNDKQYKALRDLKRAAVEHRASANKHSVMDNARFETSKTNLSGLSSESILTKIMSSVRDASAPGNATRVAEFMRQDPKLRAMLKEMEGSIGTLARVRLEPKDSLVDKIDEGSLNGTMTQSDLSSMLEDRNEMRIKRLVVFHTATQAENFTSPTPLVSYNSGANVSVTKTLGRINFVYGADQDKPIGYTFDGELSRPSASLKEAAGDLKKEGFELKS

DspE [3] = biological target: T1, DspE; test: fluorescent dye uptake, Xenopus oocytes; type: cell-based; details: permeation through channel; ND96 bath saline with fluorescein, 20 h
AvrE [4] = biological target: T2, AvrE; test: two-electrode voltage clamp, Xenopus oocytes; type: cell-based; details: 50 mV test pulse; ND96 saline, pH 7.5; inhibitor in bath saline
DspE (MBP-DspE) = biological target: T3, DspE (MBP-DspE) (Erwinia amylovora, UniProt O54581); test: liposome carboxyfluorescein release inhibition; type: biochemical; details: 20 mM HEPES, 300 mM NaCl, pH 8.0; 0.05-0.15 μM DspE; soybean lipid liposomes; channel blocker
T3 construct: full-length, N-terminal MBP-His8-PPX-FLAG tag kept; E. coli BL21(DE3); reconstituted in soybean liposomes; printed UniProt entry is strain Ea321, cloned gene from Ea273

T1 sequence (O54581 whole entry): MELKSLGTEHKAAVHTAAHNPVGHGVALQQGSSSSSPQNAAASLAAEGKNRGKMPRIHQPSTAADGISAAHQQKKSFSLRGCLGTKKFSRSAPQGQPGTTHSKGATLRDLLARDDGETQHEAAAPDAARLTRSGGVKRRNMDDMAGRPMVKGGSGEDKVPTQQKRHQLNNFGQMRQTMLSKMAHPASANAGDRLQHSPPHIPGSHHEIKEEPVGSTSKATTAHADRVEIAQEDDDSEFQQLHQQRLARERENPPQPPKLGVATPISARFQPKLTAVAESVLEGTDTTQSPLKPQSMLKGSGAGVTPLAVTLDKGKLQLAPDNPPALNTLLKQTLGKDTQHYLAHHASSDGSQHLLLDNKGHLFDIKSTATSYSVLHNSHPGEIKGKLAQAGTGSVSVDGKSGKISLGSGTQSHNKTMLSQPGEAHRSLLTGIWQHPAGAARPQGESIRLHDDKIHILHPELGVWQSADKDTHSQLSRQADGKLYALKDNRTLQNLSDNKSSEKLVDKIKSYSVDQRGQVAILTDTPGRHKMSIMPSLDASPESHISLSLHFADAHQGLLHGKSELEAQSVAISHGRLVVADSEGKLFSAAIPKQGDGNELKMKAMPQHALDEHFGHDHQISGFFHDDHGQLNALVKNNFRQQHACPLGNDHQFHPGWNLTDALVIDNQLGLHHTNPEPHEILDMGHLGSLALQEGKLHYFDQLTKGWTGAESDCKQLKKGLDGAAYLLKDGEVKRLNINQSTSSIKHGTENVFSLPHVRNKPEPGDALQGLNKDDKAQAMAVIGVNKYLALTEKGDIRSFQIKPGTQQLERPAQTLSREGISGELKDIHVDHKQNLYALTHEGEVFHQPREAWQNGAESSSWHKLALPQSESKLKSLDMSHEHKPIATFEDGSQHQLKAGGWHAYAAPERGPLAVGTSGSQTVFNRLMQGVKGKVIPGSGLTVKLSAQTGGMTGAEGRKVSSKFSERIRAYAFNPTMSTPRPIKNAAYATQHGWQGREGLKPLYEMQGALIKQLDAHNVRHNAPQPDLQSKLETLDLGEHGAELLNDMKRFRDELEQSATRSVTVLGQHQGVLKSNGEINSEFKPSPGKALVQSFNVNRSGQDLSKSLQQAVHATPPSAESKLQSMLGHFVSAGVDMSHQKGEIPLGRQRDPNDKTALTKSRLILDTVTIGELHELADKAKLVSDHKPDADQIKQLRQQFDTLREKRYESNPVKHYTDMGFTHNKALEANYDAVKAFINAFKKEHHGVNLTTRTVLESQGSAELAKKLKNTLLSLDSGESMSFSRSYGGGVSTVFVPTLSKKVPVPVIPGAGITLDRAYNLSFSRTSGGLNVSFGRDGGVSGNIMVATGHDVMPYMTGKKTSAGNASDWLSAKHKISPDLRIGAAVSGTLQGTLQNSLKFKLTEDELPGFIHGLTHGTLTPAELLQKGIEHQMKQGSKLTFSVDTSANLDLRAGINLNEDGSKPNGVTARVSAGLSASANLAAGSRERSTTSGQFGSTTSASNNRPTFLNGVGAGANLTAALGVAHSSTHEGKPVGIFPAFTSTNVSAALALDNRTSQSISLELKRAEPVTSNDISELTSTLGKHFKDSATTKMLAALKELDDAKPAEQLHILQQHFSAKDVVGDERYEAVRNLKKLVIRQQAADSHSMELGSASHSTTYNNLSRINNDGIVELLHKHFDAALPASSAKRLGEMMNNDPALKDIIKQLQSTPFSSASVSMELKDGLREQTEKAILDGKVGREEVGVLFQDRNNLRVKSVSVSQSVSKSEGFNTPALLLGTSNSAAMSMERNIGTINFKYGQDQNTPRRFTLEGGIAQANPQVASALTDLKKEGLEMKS

Work on NCCNC(=O)CCN(CCC(=O)NCCN)CCN(CCC(=O)NCCN)CCC(=O)NCCN [G0, PAMAM G0] yielded an inhibition at 10000 µM (DspE [1]; read-out: % inhibition at 10 mM) of 68%.

In the case of O=C1OC2(c3ccc(O)cc3Oc3cc(O)ccc32)c2ccccc21 [fluorescein], the “fluorescent dye uptake, Xenopus oocytes” value (AvrE [2]) is reported as “fluorescein entered oocytes expressing DspE or AvrE, whereas eGFP could not” and the “fluorescent dye uptake, Xenopus oocytes” value (DspE [3]) is reported as “fluorescein entered oocytes expressing DspE or AvrE, whereas eGFP could not”.

For PAMAM G1, the “% inhibition at 10 mM” value (AvrE [4]) was 93%, the IC50 (DspE (MBP-DspE)) was 31 µM and the “% inhibition at 10 mM” value (DspE [1]; 50 mV test pulse, ND96 saline, pH 7.5, inhibitor in bath saline) was 71%.
